Results as given in patent US6410012B1, “Antimicrobial mediated bacterial DNA delivery” (The United States of America as represented by the …, priority 1997, dated 2002).

Assays:
BHK cells [1] = assay: β-galactosidase activity in lysates of BHK cells infected with Shigella strains (plasmid DNA delivery); type: cell-based, baby hamster; details: for ability of the antimicrobial to mediate bacterial plasmid DNA delivery: attenuated Shigella flexneri not programmed to lyse, in BHK cells
Description: (§1) The protocol used for these experiments consisted of diluting an overnight culture of the bacteria 1 in 50 and allowing it to grow to midlog phase, approximately 2.5 hours. The midlog cultures were then concentrated in Hank's Balanced Salts by centrifugation to approximately 10^9 bacteria per milliliter and a small aliquot was taken to determine the midlog bacterial count. Two milliliters of bacteria were added to the appropriate semi-confluent flask of BHK cells and allowed to incubate for ninety minutes at 37° C. and 5% CO2. After the incubation, the cells were rinsed with Hank's Balanced Salts (Sigma). In most cases the flasks were treated with complete DMEM containing […] gentamicin to kill all extracellular bacteria. Either antibiotic was then added at the designated time.
(§2) Harvesting of cells was carried out as follows. At the appropriate time point media was removed from the flasks and the flasks were rinsed thoroughly with Hank's Balanced Salts followed by Edda Twiddy's EDTA. Flasks were then treated with 5 milliliters of Trypsin-EDTA for 5 minutes at 37° C. and 5% CO2 to lift the adherent mammalian cells from the flask. Ten milliliters of room temperature DMEM with serum was added to inactivate the Trypsin-EDTA. The cells were pelleted at 2000 rpm for 12 minutes at room temperature and resuspended in 10 milliliters of phosphate buffered saline (PBS).
A 100 μl aliquot was taken and diluted in 0.1 % Triton X-100 and plated on diaminopimelic acid (DAP) supplemented congo red (Sigma) tryptic soy agar for 15D or TSA without DAP for SC602. The remainder was again pelleted and resuspended in 1.3 ml PM-2 buffer. 30 μl of 10% Triton X-100 was added and the sample was incubated at room temperature and vortexed frequently for ten minutes to lyse the BHK cells. The cellular debris was pelleted for […] at 13500×g and 4° C.
Four hundred microliters of the supernatant was combined with 400 μl of PM-2 buffer in a spectrophotometric cuvette and allowed to equilibrate to 37° C. 200 μl of ONPG reagent is then added to each sample and any applicable standards. The samples were incubated at 37° C. and timed until a vibrant yellow color appeared, at which point the reaction was complete. The absorbance of each sample was measured at 420 nm and recorded. β-galactosidase activity was calculated as Ab420×380/Time (minutes). To determine the total amount of protein present in each assayed sample 200 μl of cold (−20° C.) acetone was added to 50 μl of the above supernatants, vortexed thoroughly and stored at −20° C. for 30 minutes. The samples were then pelleted for 10 minutes at 14000 rpm and the supernatant was discarded. Samples were allowed to dry in a heated evacuating centrifuge and then resuspended in 50 μl dissociation buffer. The protein concentration was then determined using a standard BCA (Pierce) protein determination protocol. Results are reported as β-galactosidase activity per mg of protein.

BHK cells [2] = assay: viable bacterial counts recovered from infected BHK cells; type: cell-based, baby hamster
Description: as §1
as §2, with “(PBS). […]” for “(PBS).”

| Structure (SMILES) | effect on delivery of plasmid DNA by 15D(pCMVβ) (BHK cells [1]; 15D(pCMVβ) infected monolayers treated just after the adherence/invasion step) | ability of the antimicrobial to mediate bacterial plasmid DNA delivery (BHK cells [1]; SC602(pCMVβ)) | effect on β-galactosidase activity (BHK cells [1]; 15D(pCMVβ) infected BHK cells, treated at various times after the adherence/invasion step) | loss of viable bacteria (BHK cells [2]; 15D(pCMVβ) infected BHK cells, treatment right after to two hours after the adherence/invasion step) [log] | effect of time of addition on β-galactosidase activity (BHK cells [1]; addition 1 to 2 hours after adherence/invasion compared to just after, SC602(pCMVβ)) | effect on number of viable bacteria (BHK cells [2]; after the addition of azithromycin to infected BHK cells) |
| --- | --- | --- | --- | --- | --- | --- |
| O=C(O)c1cn(C2CC2)c2cc(N3CCNCC3)c(F)cc2c1=O [ciprofloxacin] | inhibited delivery of the plasmid DNA | unable to mediate DNA delivery |  |  |  |  |
| C[C@@H]1C[C@@H]([C@H](O)CC2CC(=O)NC(=O)C2)C(=O)[C@@H](C)C1 [cyclohexamide] |  |  | inhibition of β-galactosidase activity | 1 |  |  |
| CC[C@H]1OC(=O)[C@H](C)[C@@H](O[C@H]2C[C@@](C)(OC)[C@@H](O)[C@H](C)O2)[C@H](C)[C@@H](O[C@@H]2O[C@H](C)C[C@H](N(C)C)[C@H]2O)[C@](C)(O)C[C@@H](C)CN(C)[C@H](C)[C@@H](O)[C@]1(C)O [azithromycin] |  | capable of mediating bacterial-based plasmid DNA delivery |  |  | greatly increased the amount of β-galactosidase activity | no dramatic decrease in the number of viable bacteria was detected |
